For data set [1], the system named is palbociclib resistant (PalboR) derivatives of MCF7, T47D, and HCC1428. The experiment in a line: Cell proliferation assay, palbociclib resistant derivatives (range over lines). The data set is classed as cell-based. The conditions noted are these: Homo sapiens, read-out: anti-proliferation IC50 values, range over cell lines. How it is done: (§1) OVCAR3, MCF7, T47D, HCC1428, NCIH2087, NCIH358 or A549cells were seeded 1-3000 cells/well in 96-well plates in growth media containing 10% FBS and cultured overnight at 37° C. 5% CO2. The following day, compounds were serially diluted from a 10 mM top dose for an 11-point 3-fold dilution curve in DMSO. Compound 1 and PF-06873600 were intermediately diluted 1:200 into growth media prior to diluting 1:5 on cells for final concentration 10 μM to 0.1 nM in 0.1% DMSO on cells. Cells were incubated at 37° C. 5% CO2 for 7 days. CYQUANT Direct Cell Proliferation Assay (Molecular Probes, Eugene, OR) was then performed following manufacturer recommendations to determine the relative viable cell numbers on the Perkin Elmer Envision 2104 Multi Label Reader at 508 nm excitation and 527 nm emission wavelengths. IC50 values were calculated by concentration-response curve fitting utilizing a four-parameter analytical method using GraphPad Prism software.
(§2) The effect of Compound 1 on cell proliferation was assessed in multiple ER+ breast cancer cell lines, including parental and palbociclib resistant cell lines.
(§3) Similar results were shown with NCIH2087, NCIH358, and A549 NSCLC cell lines ([…].4).

Data set [2] in a line: Preliminary assessment of metabolism (hepatocytes, human liver microsomes, plasma after oral dosing). The data set is classed as in vitro ADME, rat, rabbit. The conditions noted are these: hepatocytes of six species, plasma from monkey, dog and mouse. Here is the method: A preliminary assessment of the metabolism of Compound 1 was conducted using mouse, rat, rabbit, dog, monkey and human hepatocytes; human liver microsomes; plasma from monkey, dog and mouse studies following oral dosing. The primary metabolic pathway of Compound 1 was oxidation.

Data set [3] can be described thus: Rat i.v. pharmacokinetic study. The data set is classed as in vivo. How it is done: Rat PK studies were done at Pfizer (Groton, CT) or BioDuro Pharmaceutical Product Development Inc. (Shanghai, PRC); Jugular vein-cannulated male Wistar-Hannover rats were purchased from Charles River Laboratories, Inc. (Wilmington, MA) or Vital River (Beijing, China) and were typically 7-10 weeks of age at the time of dosing. During the pharmacokinetic studies all animals were housed individually. Access to food and water was provided ad libitum. Compounds were administered i.v. via the tail vein (n=2 or 3), dosed as a 1 mg/ml solution using standard compatible excipients at 1 mL/kg for a resulting dose of […]. Serial blood samples were collected via the jugular vein cannula at predetermined timepoints after dosing. Animals were monitored for pain or distress throughout the study, with at least daily monitoring during normal husbandry prior to study start. At the completion of the study, animals were euthanized by overdose of inhaled anesthesia followed by exsanguination. […] Plasma samples from the animal PK studies were processed using protein precipitation with acetonitrile: methanol (1:1) containing internal standard verapamil followed by quantitation by LC-MS/MS against a standard curve prepared in blank plasma. Pharmacokinetic parameters were calculated using noncompartmental analysis (Watson v.7.5, Thermo Scientific).

In data set [4] the target is T1, CDK4/Cyclin D1 (Homo sapiens, UniProt P11802).
T1 construct: 2007 E1/2008+PO4
The experiment in a line: CDK4/Cyclin D1 mobility shift assay. The format is biochemical. The conditions noted are these: geometric mean, 3.5 mM ATP. Here is the method: The mobility shift assay electrophoretically separates the fluorescently labeled peptides (substrate and phosphorylated product) following the kinase reaction. Both substrate and product are measured and the ratio of these values is used to generate % Conversion of substrate to product by the LabChip EZ Reader.
K, determinations were made from a plot of the fractional velocity as a function of inhibitor concentration fit to the Morrison equation with the enzyme concentration as a variable.

The target of data set [5] is T2, CDK2/Cyclin E1 (Homo sapiens, UniProt P24941).
T2 construct: Wild-type full length CDK2/wild-type full length Cyclin E1 enzyme complex was produced in-house
The experiment in a line: CDK2/Cyclin E1 mobility shift assay. The format is biochemical. The conditions noted are these: geometric mean, 150 μM ATP. How it is done: (CPC Scientific, Sunnyvale, CA). The mobility shift assay electrophoretically separates the fluorescently labeled peptides (substrate and phosphorylated product) following the kinase reaction. Both substrate and product are measured, and the ratio of these values is used to generate % conversion of substrate to product by the LabChip EZ Reader. […] The assay was initiated with the addition of ATP, following a fifteen minutes pre-incubation of enzyme and inhibitor at room temperature in the reaction mixture. The reaction was stopped after 45 minutes at room temperature by the addition of 50 μL of 80 mM EDTA, pH 7.5. The Ki value was determined from the fit of the data to the Morrison tight-binding competitive inhibition equation with the enzyme concentration as a variable.

Data set [6] is described as follows: Human blood-to-plasma partition ratio (BPR). The format is in vitro ADME. On the set-up: dose or concentration left out as unconfirmed. The conditions noted are these: fresh whole blood, 37° C. Here is the method:
Compound 1 has been evaluated according to methods well known in the art, for its ability to partition between human plasma and blood. Based on the observed partitioning and plasma protein binding, the blood binding was estimated based on human blood unbound fraction (fub)=human plasma unbound fraction (fup)/human blood-to-plasma partition ratio (BPR). […] At the end of the incubations, blood and plasma samples were matrix-matched and analyzed by LC-MS/MS. BPR was calculated by dividing the blood and plasma measure peak areas.

Data set [7] deals with MCF7, T47D, and HCC1428 parental ER+ breast cancer cell lines. The experiment in a line: Cell proliferation assay, parental ER+ breast cancer cell lines (range over lines). The format is cell-based. The conditions noted are these: Homo sapiens, read-out: anti-proliferation IC50 values, range over cell lines. How it is done: as §1, §2, §3
The target of data set [8] is T3, CDK6/Cyclin D3 (Homo sapiens, UniProt Q00534).
T3 construct: LJIC-2009G1/2010+PO4
Nature of the data set: CDK6/Cyclin D3 mobility shift assay. The format is biochemical. The conditions noted are these: geometric mean, 3.5 mM ATP. Here is the method:
The mobility shift assay electrophoretically separates the fluorescently labeled peptides (substrate and phosphorylated product) following the kinase reaction. Both substrate and product are measured, and the ratio of these values is used to generate % conversion of substrate to product by the LabChip EZ Reader.
The reaction was stopped after 95 minutes by the addition of 50 μL of 30 mM EDTA. Ki determinations were made from a plot of the fractional velocity as a function of inhibitor concentration fit to the Morrison equation with the enzyme concentration as a variable.
For CDK4 and CDK6 mobility shift assays, see also Morrison, J. F. (1969) Kinetics of the reversible inhibition of enzyme-catalysed reactions by tight-binding inhibitors, Biochimica et biophysica acta 185, 269-286; and Murphy, D. J. (2004) Determination of accurate KI values for tight-binding enzyme inhibitors: an in silico study of experimental error and assay design, Analytical biochemistry 327, 61-67.

The nature of data set [9]: Observed human half-life. The data set is classed as in vivo.

T3 sequence (Q00534 whole entry): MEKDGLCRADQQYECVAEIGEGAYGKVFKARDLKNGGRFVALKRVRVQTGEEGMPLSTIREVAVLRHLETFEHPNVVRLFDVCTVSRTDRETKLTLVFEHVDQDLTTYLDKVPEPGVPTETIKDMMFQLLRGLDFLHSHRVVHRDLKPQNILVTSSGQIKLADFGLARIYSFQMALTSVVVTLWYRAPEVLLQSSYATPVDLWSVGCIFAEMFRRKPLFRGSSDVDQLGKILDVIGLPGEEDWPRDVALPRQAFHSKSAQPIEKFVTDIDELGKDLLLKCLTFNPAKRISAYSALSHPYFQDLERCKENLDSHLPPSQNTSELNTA
T3 sequence (P30281 whole entry partner): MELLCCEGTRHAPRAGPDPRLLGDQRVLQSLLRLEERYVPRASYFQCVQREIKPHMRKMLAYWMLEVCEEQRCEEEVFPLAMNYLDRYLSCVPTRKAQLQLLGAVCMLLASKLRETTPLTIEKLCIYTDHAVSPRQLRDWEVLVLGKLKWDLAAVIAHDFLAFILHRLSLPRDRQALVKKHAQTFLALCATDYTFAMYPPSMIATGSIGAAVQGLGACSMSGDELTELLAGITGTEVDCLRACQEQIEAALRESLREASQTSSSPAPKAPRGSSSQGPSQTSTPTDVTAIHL
T1 sequence (P11802 whole entry): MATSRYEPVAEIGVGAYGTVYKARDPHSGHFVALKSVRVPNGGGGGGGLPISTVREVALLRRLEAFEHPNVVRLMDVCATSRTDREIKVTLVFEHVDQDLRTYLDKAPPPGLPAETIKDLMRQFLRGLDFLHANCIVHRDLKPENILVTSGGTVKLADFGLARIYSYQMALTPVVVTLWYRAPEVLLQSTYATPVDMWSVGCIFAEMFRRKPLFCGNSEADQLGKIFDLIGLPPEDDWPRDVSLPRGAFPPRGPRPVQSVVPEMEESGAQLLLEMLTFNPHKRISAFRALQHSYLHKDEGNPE
T1 sequence (P24385 whole entry partner): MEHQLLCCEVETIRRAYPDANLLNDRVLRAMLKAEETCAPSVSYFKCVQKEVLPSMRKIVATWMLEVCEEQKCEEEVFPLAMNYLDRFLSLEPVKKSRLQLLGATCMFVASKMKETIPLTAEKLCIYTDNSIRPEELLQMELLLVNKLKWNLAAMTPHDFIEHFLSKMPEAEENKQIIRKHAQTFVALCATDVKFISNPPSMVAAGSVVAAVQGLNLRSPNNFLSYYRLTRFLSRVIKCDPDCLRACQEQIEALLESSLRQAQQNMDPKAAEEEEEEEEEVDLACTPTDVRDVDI

What is called Ki is the equilibrium dissociation constant of an inhibitor or competing ligand from its target. As for `C[C@@]1(O)CCC[C@H]1n1c(=O)c(CC(F)F)cc2cnc(NC3CCN(S(N)(=O)=O)CC3)nc21` [Compound 1, 4-({6-(2,2-difluoroethyl)-8-[(1R,2R)-2-hydroxy-2-methylcyclopentyl]-7-oxo-7,8-dihydropyrido[2,3-d]pyrimidin-2-yl}amino)piperidine-1-sulfonamide], the IC50 in data set [1] fell in the range of 37.3 to 65.7 nM; in data set [7] it was 14.3 to 17.6 nM. Moreover, the primary metabolic pathway entry in [2] was “oxidation”. The “Rat Vdss unbound: (Rat plasma Vdss/rat plasma fu)” value in data set [3] came to 10.8 L/kg. The Vd in data set [3] (rat, plasma, iv, 2 mg/kg, male Wistar-Hannover rats, read-out: Rat Vdss) was 1.5 L/kg. Further, the inhibition constant Ki in [4] worked out at 0.79 nM; in data set [5] it was 0.08 nM; in [8], 3.1 nM. The blood plasma ratio at 1 h in data set [6] came out at 79.
`C[C@@]1(O)CCC[C@H]1n1c(=O)c(C(F)F)cc2cnc(NC3CCN(S(C)(=O)=O)CC3)nc21` [Compound 2, reference compound]: in [9], the “observed human t1/2” value was ~3 h. Also, the half-life in data set [9] (in vivo, read-out: observed human t1/2 (converted)) was 3 h.

These data come from patent US20240140947A1, “COMPOUND FOR THE TREATMENT OF CANCER” (priority 2022, published 2024).
